Data taken from PMC7501227, “Flatfishes colonised freshwater environments by acquisition of various DHA biosynthetic pathways” (Communications Biology, 2020).

Experiments:
[1] = molecular target: T1, Elovl5 (G. melas) (Gymnachirus melas, UniProt A0A7G1GDB9); test: yeast expression, GC of FAMEs, % conversion; assay type: cell-based; conditions: elongation of C18 substrate; yeast culture 48 h, 30 °C
T1 construct: full ORF in pYES2, expressed in S. cerevisiae INVSc1
T1 sequence (A0A7G1GDB9 1-294): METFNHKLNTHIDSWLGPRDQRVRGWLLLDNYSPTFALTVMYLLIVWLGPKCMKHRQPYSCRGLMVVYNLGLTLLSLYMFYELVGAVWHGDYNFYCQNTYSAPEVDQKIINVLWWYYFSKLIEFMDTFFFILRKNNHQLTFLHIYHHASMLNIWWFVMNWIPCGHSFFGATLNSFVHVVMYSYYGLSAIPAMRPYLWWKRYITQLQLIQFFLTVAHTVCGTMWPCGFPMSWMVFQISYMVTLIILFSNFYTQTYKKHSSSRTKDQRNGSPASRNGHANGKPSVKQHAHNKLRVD

[2] = molecular target: T2, Elovl5 (T. maculatus) (Trinectes maculatus, UniProt A0A7G1GDF5); test: yeast expression, GC of FAMEs, % conversion; assay type: cell-based; conditions: elongation of C18 substrate; yeast culture 48 h, 30 °C
T2 construct: full ORF in pYES2, expressed in S. cerevisiae INVSc1
T2 sequence (A0A7G1GDF5 1-294): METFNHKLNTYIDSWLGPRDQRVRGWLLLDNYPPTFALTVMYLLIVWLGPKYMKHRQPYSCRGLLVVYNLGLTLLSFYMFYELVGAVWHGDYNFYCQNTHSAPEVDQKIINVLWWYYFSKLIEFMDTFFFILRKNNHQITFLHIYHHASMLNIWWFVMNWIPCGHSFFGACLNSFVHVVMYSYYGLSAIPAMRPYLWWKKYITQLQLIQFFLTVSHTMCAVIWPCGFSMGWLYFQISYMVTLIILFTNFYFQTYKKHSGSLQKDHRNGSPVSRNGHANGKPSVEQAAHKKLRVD

[3] = molecular target: T3, Elovl5 (H. mentalis) (Hypoclinemus mentalis, UniProt A0A7G1GDF4); test: yeast expression, GC of FAMEs, % conversion; assay type: cell-based; conditions: elongation of C18 substrate; yeast culture 48 h, 30 °C
T3 construct: full ORF in pYES2, expressed in S. cerevisiae INVSc1
T3 sequence (A0A7G1GDF4 1-294): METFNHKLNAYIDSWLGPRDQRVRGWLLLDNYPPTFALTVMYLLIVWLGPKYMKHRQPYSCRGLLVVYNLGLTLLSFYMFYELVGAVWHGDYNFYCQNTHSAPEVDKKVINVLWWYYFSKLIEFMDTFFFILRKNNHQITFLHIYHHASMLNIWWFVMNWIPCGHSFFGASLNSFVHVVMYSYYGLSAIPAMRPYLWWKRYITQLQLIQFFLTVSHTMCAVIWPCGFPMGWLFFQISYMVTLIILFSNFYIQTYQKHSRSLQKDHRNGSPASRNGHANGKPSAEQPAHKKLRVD

[4] = molecular target: T4, Fads2 (A. finis) (Apionichthys finis, UniProt A0A7G1GDB3); test: yeast co-expression with zebrafish Elovl2, GC of FAMEs; assay type: cell-based; parameters: full ORF in pYES2, expressed in S. cerevisiae INVSc1; conditions: Δ6 desaturation; 24:5n-3 formed in the yeast from 22:5n-3 by zebrafish Elovl2; normalised to 18:3n-3
[5] = molecular target: T5, Fads2a (H. mentalis) (Hypoclinemus mentalis, UniProt A0A7G1GDA4); test: yeast expression, GC of FAMEs, % conversion; assay type: cell-based; conditions: Δ6 desaturation; yeast culture 48 h, 30 °C
T5 construct: full ORF in pYES2, 442 residues, expressed in S. cerevisiae INVSc1

[6] = molecular target: T4, Fads2 (A. finis); conditions: Δ6 desaturation; yeast culture 48 h, 30 °C

T4 sequence (A0A7G1GDB3 entry or part of it): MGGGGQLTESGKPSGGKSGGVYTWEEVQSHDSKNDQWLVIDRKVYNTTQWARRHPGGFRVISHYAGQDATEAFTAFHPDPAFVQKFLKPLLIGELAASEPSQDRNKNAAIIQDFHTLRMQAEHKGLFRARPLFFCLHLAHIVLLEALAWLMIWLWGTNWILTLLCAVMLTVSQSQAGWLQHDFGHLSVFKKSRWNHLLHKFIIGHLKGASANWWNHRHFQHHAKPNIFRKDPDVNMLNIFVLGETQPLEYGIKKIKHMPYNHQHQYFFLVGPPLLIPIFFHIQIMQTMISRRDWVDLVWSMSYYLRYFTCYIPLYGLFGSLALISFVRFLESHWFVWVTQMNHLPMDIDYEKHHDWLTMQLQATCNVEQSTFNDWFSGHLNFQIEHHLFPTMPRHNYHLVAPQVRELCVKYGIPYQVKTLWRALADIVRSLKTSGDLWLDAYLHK
T5 sequence (A0A7G1GDA4 entry or part of it): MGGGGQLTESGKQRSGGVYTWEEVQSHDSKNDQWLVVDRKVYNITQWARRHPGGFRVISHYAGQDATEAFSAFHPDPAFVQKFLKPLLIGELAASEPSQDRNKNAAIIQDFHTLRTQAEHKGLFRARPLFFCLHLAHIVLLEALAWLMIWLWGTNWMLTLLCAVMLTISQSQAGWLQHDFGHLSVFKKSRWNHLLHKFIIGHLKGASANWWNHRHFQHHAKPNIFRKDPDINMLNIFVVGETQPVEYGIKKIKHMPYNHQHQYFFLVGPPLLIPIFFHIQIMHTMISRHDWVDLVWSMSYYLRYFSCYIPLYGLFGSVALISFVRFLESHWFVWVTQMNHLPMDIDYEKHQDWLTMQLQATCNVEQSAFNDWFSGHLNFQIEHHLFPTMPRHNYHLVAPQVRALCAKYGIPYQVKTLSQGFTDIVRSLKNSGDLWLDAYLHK

## CC/C=C\C/C=C\C/C=C\C/C=C\CCCCC(=O)O [18:4n − 3]
[1]
  yeast expression, GC of FAMEs, % conversion: The G. melas Elovl5 exhibited activity towards C18 to C22 substrates
[2]
  yeast expression, GC of FAMEs, % conversion: The Elovl5 showed elongase activities towards C18 to C22 substrates
[3]
  yeast expression, GC of FAMEs, % conversion: The Elovl5 performed elongations of C18 to C22 substrates

## CC/C=C\C/C=C\C/C=C\C/C=C\C/C=C\CCCCCCCC(=O)O [24:5n − 3]
[4]
  yeast co-expression with zebrafish Elovl2, GC of FAMEs: desaturation at the highest efficiency among the four species

## CC/C=C\C/C=C\C/C=C\CCCCCCCC(=O)O [α-linolenic acid]
[5]
  yeast expression, GC of FAMEs, % conversion: The two Fads2, namely Fads2a and Fads2b, showed distinct activities
[6]
  yeast expression, GC of FAMEs, % conversion: The Fads2 isolated from A. finis showed
